Test results as given in publication PMC9137037 (Frontiers in Oncology, 2022).
Where no end group is shown, it is not given here.

Legend:
[1] = tested on: CT26 colon carcinoma cells; assay: CT26 tumor challenge in immunized syngeneic BALB/c mice; type: in vivo, mouse
Description: The peptide vaccine MVF-PD-1(92-110) was dissolved in sterile water and mixed with either ISA 720 or ISA 51 (1:1) ratio. We utilized the well-established murine colon carcinoma cell line CT26 tumor model in syngeneic BALB/c mice to evaluate the effects of vaccination previously described ([23]). Briefly, 6–8-week-old female BALB/c mice were immunized with the peptide vaccine, and 2 weeks after the third immunization, the mice were challenged with 1×10^5 CT26 colon cancer cells by subcutaneous injection (SC). The CT26 cancer cell line was maintained in the DMEM medium with 10% FBS 5% CO2 at 37 °C. Phosphate-buffered saline (PBS)-treated mice were set as negative control, while the positive control group mice were treated with an anti-mouse PD-1 monoclonal antibody (clone 29F.1A12; Bio X Cell, West Lebanon, NH, USA) with 200 μg/dose per mouse. Blood was collected biweekly after the primary immunization until 2 weeks after the third immunization. Tumor growth was monitored daily, especially 7 days after the tumor challenge. The mice were euthanized at the end of treatment, and the tumors were extracted and weighed.
The mice in PBS and mAb (29F.1A12) groups, n = 10; group 1 to group 7, n = 8, group 8 n = 7 (one mouse was lost due to a non-immunization related reason before the challenge).
The mice challenged with CT26 tumor cells were monitored at least twice per week and tumor sizes were measured by calipers. The formula, volume (LWW) = (length × width × width)/2, was used to calculate tumor volumes. All values are shown as means ± standard deviation. Data statistical analysis was performed by GraphPad Prism 8.1.2 (GraphPad Software, Inc. San Diego, CA, USA) and the indicated statistical analysis. The percentage of tumor growth inhibition (%TGI) was defined as the difference between the median tumor volume (MTV) of the treatment group with the PBS control group, and the value was calculated by the following formula: %TGI=100*(MTV control − MTV test)/MTV control. The percentage of complete response (CR) was defined as the tumor volume equal to or less than 50 mm^3 for at least 3 consecutive measurements during the study. The log-rank (Mantel−Cox) test was used to compare the percentage of CR in multiple groups. Student’s t-test was used to analyze the difference between the two groups. One-way analysis of variance (one-way ANOVA) followed by the Tukey’s multiple comparison test were used to compare data in multiple groups or data between groups in multiple groups, and the two-way ANOVA was used to analyze the whole curve comparison. The log-rank (Mantel−Cox) test was use to compare the survival curves. A p-value or an adjusted p-value less than 0.05 was accepted as a statistically significant difference.
To verify and confirm the previous immunogenicity studies and antitumor activities of PD-1(92-110) ([23]), 6–8-week-old BALB/c mice were vaccinated with MVF-PD-1(92-110) every 2- or 3- week intervals. Peptide cancer vaccine (100 μg) mixed with ISA 720 (1:1) or ISA 51 (1:1) or nor-MDP 33 μg were used per mice. Mice were boosted with the designed doses of vaccine every 2- or 3-week intervals for a total of 3 vaccine shots. Blood was collected weekly for monitoring antibody titers. After 2 weeks of the third immunization (3Y), mice were challenged with CT26 colon carcinoma cells for 1×10^5 cells per mouse. The tumor growths were monitored and checked daily, especially 7 days post-challenge, and the tumor size was measured with calipers ( Figure 1A ). For the positive control group, we treated the mice with an anti-mouse PD-1 antibody (clone 29F.1A12) twice a week for up to three weeks, while the negative control group was treated with PBS. The mice CT26 tumor model study was separated into 10 different groups, post-challenge treated with PBS as the negative control group or an anti-mouse PD-1 antibody (clone 29F.1A12) as positive control group ( Figure 1B ). Group 1 to group 8 comprised the peptide vaccine treatment groups. […]

[2] = biological target: T1, recombinant human PD-1 (rhPD-1) (Homo sapiens, UniProt Q15116); assay: ELISA of monkey serum with rhPD-1 as capture agent; type: binding; settings: monkey sera
T1 construct: His tag; purchased ACROBiosystems PD1-H5221
Description: For the detection of PD-1 human recombinant protein activity, the human recombinant protein PD-1 (PD1-H5221, HIS tag; ACROBiosystems, Newark, DE, USA) 100 μl at the concentration of […] were coated on the 96 wells plate as an antigen. The following procedures were performed as the description of ELISA.
In a separate experiment, these monkey serum samples were tested using recombinant human PD-1 (rhPD-1) as the capture agent. […] See Table 2 for summary of mouse, dog, and non-human primate experiments.

BALB/c mice = assay: Observation for autoimmune symptoms in immunized mice; type: in vivo, mouse
Source text: The common autoimmune symptoms are identified as follows: skin rashes, low-grade fever, achy muscles, fatigue, hair loss, trouble concentrating, and so on. […] For the dogs, the high volume of ISA 720 caused a lesion near the injection site that might result in mild swelling, but the symptoms were resolved weeks after. The immunized monkeys had some swelling at or near the site of IM injection, especially after the second or third dose and more frequent in females than males. In all the clinical observations, these animals either had recovered or were in the process of recovering. Despite these adverse clinical findings, all of them were active and in good condition throughout the project. Overall, there were no observable signs or uncontrolled autoimmune symptoms.

T1 sequence (Q15116 25-288): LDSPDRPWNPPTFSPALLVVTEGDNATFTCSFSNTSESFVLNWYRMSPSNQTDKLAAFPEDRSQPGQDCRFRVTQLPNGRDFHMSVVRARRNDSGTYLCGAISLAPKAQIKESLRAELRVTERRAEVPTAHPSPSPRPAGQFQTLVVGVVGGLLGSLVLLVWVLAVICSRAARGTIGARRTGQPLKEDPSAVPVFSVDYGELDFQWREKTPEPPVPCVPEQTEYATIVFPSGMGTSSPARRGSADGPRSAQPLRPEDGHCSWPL

Sequence: KLLSLIKGVIVHRLEGVEGPSLGAISLAPKAQIKESLRAEL [MVF-PD-1(92-110)]
- percentage of complete response (CR) ([1]; CR = tumor volume ≤50 mm^3 for at least 3 consecutive measurements, combined immunized groups vs PBS and mAb 29F.1A12, log-rank): higher percentage of complete response
- tumor burden vs PBS and vs 29F.1A12 (summary) ([1]; mouse, CT26, Figures 2G, H): PD-1(92) significant less tumor burden vs. PBS, no difference vs. 29F.1A12 ( Figures 2G, H );
- 2-week vs. 3-week immunization interval (summary) ([1]; mouse, CT26, Figures 2G-I): 2-week vs. 3-week no difference ( Figures 2G-I );
- ISA 720 vs ISA 51 (summary) ([1]; mouse, CT26, Figures 2G-I): ISA 720 vs ISA 51 no difference ( Figures 2G-I );
- No nor-MDP vs nor-MDP (summary) ([1]; mouse, CT26, Figures 2G-I): No nor-MDP vs nor-MDP no difference ( Figures 2G-I );
- tumor size (LWW) versus the PBS group ([1]; two-way ANOVA of whole-curve comparison, p-value less than 0.01, majority of the mice): significantly inhibited
- recognition of rhPD-1 by anti-APi2568 antibody in monkey serum (summary) ([2]; days 29, 43, 57): high binding ability against rh-PD-1
- recognition of rhPD-1 by anti-APi2568 antibody in monkey serum (summary) ([2]; days 29, 43, 57, listed as APi2568): some of the anti-APi2568 antibody formed in monkeys recognized rhPD-1
- induction of autoimmune responses (BALB/c mice): has not been observed
